The numbers were not newly measured in patent US4410516A, “1-N(αHydroxy-ω-aminoalkanoyl) derivatives of 5,3',4'-trideoxy- or 5,3', 4'-trideoxy-6'-N- methyl- or 5, 3', 4',6"-tetradeoxykannamyci B and production thereof” (Zaidan Hojin Biseibutsu Kagaku Kenkyu Kai, priority 1981, dated 1983), which cites them from elsewhere.

Entries after “also recorded” stand apart in the source; their conditions may differ.

Data set [1] has as its system bacteria. To be noted: in words, earlier work / other filings; cited from earlier work.
The subject of data set [2] is animals, including men. To be noted: in words, other filings; cited from earlier work.
For data set [3] the following is noted: in words, other filings; cited from earlier work.

As to `NC[C@@H]1CC[C@@H](N)[C@@H](O[C@H]2C[C@@H](O[C@H]3O[C@H](CO)[C@@H](O)[C@H](N)[C@H]3O)[C@H](N)C[C@@H]2N)O1` [5,3',4'-trideoxykanamycin B], the antibacterial activity result in data set [1] is given as “less active than dibekacin; also recorded: exhibits no useful anti-bacterial activity”.
On to `NCC[C@H](O)C(=O)N[C@@H]1C[C@H](N)[C@@H](O[C@H]2O[C@H](CN)[C@@H](O)C[C@H]2O)[C@H](O)[C@H]1O[C@H]1O[C@H](CO)[C@@H](O)[C@H](N)[C@H]1O` [3'-deoxyamikacin], for which the antibacterial activity result in data set [1] is “useful antibacterial activity as high as that of amikacin”. For the same compound, the acute toxicity result in data set [2] is on record as “low acute toxicity”. In data set [3], the oto-toxicity entry is listed as “low oto-toxicity”.
Take `C[C@@H]1C[C@H](N)[C@@H](O)[C@@H](O[C@@H]2[C@@H](O)[C@H](O[C@H]3O[C@H](CN)[C@@H](O)[C@H](O)[C@H]3O)[C@@H](N)C[C@H]2NC(=O)[C@@H](O)CCN)O1` [4",6"-dideoxyamikacin]: in data set [1], the antibacterial activity entry is recorded as “useful antibacterial activity as high as that of amikacin”. Besides, in data set [2], the acute toxicity result is on record as “low acute toxicity”. Moreover, the oto-toxicity result in data set [3] is on record as “low oto-toxicity”.
As to `NCC[C@H](O)C(=O)N[C@@H]1C[C@H](N)[C@@H](O[C@H]2O[C@H](CN)[C@@H](O)C[C@H]2O)C[C@H]1O[C@H]1O[C@H](CO)[C@@H](O)[C@H](N)[C@H]1O` [5,3'-dideoxyamikacin], the antibacterial activity result in data set [1] is given as “useful antibacterial activity as high as that of amikacin”. The acute toxicity result in data set [2] is on record as “low acute toxicity”. In data set [3], the oto-toxicity result is “low oto-toxicity”.
For `C[C@H]1O[C@H](O[C@@H]2[C@@H](O)[C@H](O[C@H]3O[C@H](CN)CC[C@H]3O)[C@@H](N)C[C@H]2NC(=O)[C@@H](O)CCN)[C@H](O)[C@@H](N)[C@@H]1O` [3',4',6"-trideoxyamikacin], the antibacterial activity entry in data set [1] was “useful antibacterial activity as high as that of amikacin”. Further, the acute toxicity entry in data set [2] is listed as “low acute toxicity”. Besides, the oto-toxicity entry in data set [3] is listed as “low oto-toxicity”.
In the case of `C[C@@H]1C[C@H](N)[C@@H](O)[C@@H](O[C@@H]2[C@@H](O)[C@H](O[C@H]3O[C@H](CN)CC[C@H]3O)[C@@H](N)C[C@H]2NC(=O)[C@@H](O)CCN)O1` [3',4',4",6"-tetradeoxyamikacin], in data set [1], the antibacterial activity entry is “useful antibacterial activity as high as that of amikacin”. Besides, the acute toxicity result in data set [2] is listed as “low acute toxicity”. Further, the oto-toxicity result in data set [3] was “low oto-toxicity”.
Consider `C[C@H]1O[C@H](O[C@@H]2[C@@H](O)[C@H](O[C@H]3O[C@H](CN)[C@@H](O)[C@H](O)[C@H]3O)[C@@H](N)C[C@H]2NC(=O)[C@@H](O)CCN)[C@H](O)[C@@H](N)[C@@H]1O` [6"-deoxyamikacin], for which, in data set [1], the antibacterial activity result is “useful antibacterial activity as high as that of amikacin”. Besides, in data set [2], the acute toxicity entry is “low acute toxicity”. In addition, in data set [3], the oto-toxicity result is reported as “low oto-toxicity”.
As to `NCC[C@H](O)C(=O)N[C@@H]1C[C@H](N)[C@@H](O[C@H]2O[C@H](CN)CC[C@H]2O)[C@H](O)[C@H]1O[C@H]1O[C@H](CO)[C@@H](O)[C@H](N)[C@H]1O` [3',4'-dideoxyamikacin], the antibacterial activity entry in data set [1] is “useful antibacterial activity as high as that of amikacin”. Also, the acute toxicity entry in data set [2] is “low acute toxicity”. In addition, in data set [3], the oto-toxicity entry is reported as “low oto-toxicity”.
`NC[C@@H]1CC[C@@H](N)[C@@H](O[C@H]2[C@H](O)[C@@H](O[C@H]3O[C@H](CO)[C@@H](O)[C@H](N)[C@H]3O)[C@H](N)C[C@@H]2N)O1` [Dibekacin, 3',4'-dideoxykanamycin B]: in data set [1], the antibacterial activity entry is “active against the kanamycin-sensitive bacteria and also against various kanamycin-resistant bacteria”.
`C[C@H]1O[C@H](O[C@@H]2C[C@H](O[C@H]3O[C@H](CN)[C@@H](O)C[C@H]3O)[C@@H](N)C[C@H]2NC(=O)[C@@H](O)CCN)[C@H](O)[C@@H](N)[C@@H]1O` [5,3',6"-trideoxyamikacin]: the antibacterial activity result in data set [1] was “useful antibacterial activity as high as that of amikacin”. For the same compound, the acute toxicity entry in data set [2] is reported as “low acute toxicity”. Further, the oto-toxicity result in data set [3] was “low oto-toxicity”.
Regarding `C[C@H]1O[C@H](O[C@@H]2[C@@H](O)[C@H](O[C@H]3O[C@H](CN)[C@@H](O)C[C@H]3O)[C@@H](N)C[C@H]2NC(=O)[C@@H](O)CCN)[C@H](O)[C@@H](N)[C@@H]1O` [3',6"-dideoxyamikacin], the antibacterial activity result in data set [1] is given as “useful antibacterial activity as high as that of amikacin”. Moreover, the acute toxicity entry in data set [2] is “low acute toxicity”. The oto-toxicity entry in data set [3] is given as “low oto-toxicity”.
